Structures can show the parent of a compound that is named as a salt. Where two headings read alike, the source gives them in different places.
Assays:
[1] = water solubility of stilbene and carbamate prodrug (salts and free base); type: physicochemical; settings: for solubility: water, 20 °C, 20° C.
Method: Stilbene prodrugs may be made by attaching to a stilbene derivative of interest (e.g. a stilbene derivative with anti-tumor activity), chemical groups (or moieties) that render the stilbene derivative more water soluble than before such a modification is carried out. By “water soluble” we mean that more than 20 mg compound can be fully dissolved in 1 mL of water. Further, the chemical groups that are attached to the stilbene derivative to make the derivative water soluble are labile (i.e. removable) in that, upon exposure to in vitro or in vivo hydrolyzing conditions, the chemical groups are removed or dissociated from the stilbene derivative by hydrolysis, releasing the active, anti-tumor form of the stilbene derivative. The chemical groups which are attached may themselves be biologically active, and are, at least, not biologically injurious to cells or mammals. […] As illustrated, morfolinoethyl-urea, morfolinoethyl-carbamate and triethylene glycol (TEG) groups (5a, 5b, 5c, respectively) may be used for this purpose.

[2] = tested on: SNU423 hepatocellular carcinoma cells; experiment: Alamar Blue cell growth inhibition, SNU423; type: cell-based
Procedure, shortened: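 Cells at 50% confluence were treated for 48 h in triplicate with 0-10 μM compound or 0.1% DMSO vehicle. Alamar Blue was added at 1/10 volume for 2 h, and absorbance at 570 and 600 nm gave % growth via the manufacturer's extinction-coefficient formula relative to vehicle controls.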

[3] = tested on: MDA-MB231 breast cancer cells; experiment: Alamar Blue cell growth inhibition, MDA-MB231; type: cell-based; settings: Homo sapiens, MDA-MB-231; MDA-MB231
Method: Cell growth was measured by Alamar Blue™ staining and the percentage of cell growth inhibition was calculated and compared with control cells that were treated with 0.1% DMSO, the vehicles for the stilbene compounds.
(§1) Various cancer cell lines were grown in 96-well plates for drug sensitivity assays. Once cells achieved 50% confluence, the incubation media was changed to the same cell growth media with different concentrations of the tested compounds or vehicle alone. Cells were then incubated for 48 hours before the cell growth inhibition study. To determine the degree of cell growth inhibition, 1/10 volume of Alamar Blue™ solution was added to each well and optical density (OD) at 570 and 600 nm was determined. The percentage of growth inhibition was calculated according to the manufacturer's formula as follows: The percentage of growth is [(117216×A570)−(80586×A600)]/[(117216×A^o570)−(80586×A^o600)]×100. In this formula, A570 is the absorbance of the treated samples at 570 nm; A600 is the absorbance of the treated samples at 600 nm; A^o570 is the absorbance of the […] samples at 570 nm; and A^o600 is the absorbance of the untreated samples at 600 nm. The two constants, 117216 and 80586, are the extinction coefficients of Alamar Blue™ at 570 and 600 nm respectively. Each concentration was repeated in triplicate to minimize the error.
(§2) We first tested the cytotoxic effect of various stilbene derivatives for their in vitro efficacy of suppressing tumor cell proliferation. Cells were first plated in 96-well plates at 50% confluence and treated with 0, 0.01, 0.03, 0.1, 0.3, 1.0, 3.0, 10 μM concentrations of stilbene derivatives for 48 hours in triplicate. Alamar Blue™ reagent was added into each well at 1/10 volume and incubated for 2 hours before quantification of the absorbance at 570 and 600 nm.

[4] = tested on: MiaPaCa2 pancreatic cancer cells; experiment: Alamar Blue cell growth inhibition, MiaPaCa2; type: cell-based; settings: Homo sapiens, MIA PaCa-2; MiaPaCa2
Method: as §1, §2

[5] = tested on: UCI101 ovarian cancer cells; experiment: Alamar Blue cell growth inhibition, UCI101; type: cell-based
Procedure, shortened: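 UCI101 cells at 50% confluence treated 48 h in triplicate with compound (0–10 μM series) or 0.1% DMSO vehicle as 100% control. Alamar Blue added at 1/10 volume for 2 h; absorbance read at 570 and 600 nm, percent growth inhibition from the manufacturer's formula.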

[6] = tested on: SKOV3 ovarian cancer cells; experiment: Alamar Blue cell growth inhibition, SKOV3; type: cell-based
Procedure, shortened: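 SKOV3 cells at 50% confluence were treated 48 h with compounds, against 0.1% DMSO vehicle controls. Growth was read by Alamar Blue absorbance at 570 and 600 nm, with % growth inhibition from the manufacturer's extinction-coefficient formula. Each concentration was run in triplicate.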

[7] = tested on: UCI101 ovarian cancer cells; experiment: Western blot of signal transduction events, UCI101; type: cell-based
Procedure, shortened: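 UCI101 cells exposed to 0.1 μM compound for 0, 4, 8, 16 and 36 h, then harvested and analysed by Western blot. Probes covered G2-M regulators Cdc2, Cdc25c and BubR1, plus Akt phosphorylation.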

[8] = animal toxicity of 13a; settings: 50 mg/kg
[9] = tested on: UCI101 cells; experiment: cell cycle analysis (propidium iodide, FACScan), UCI101; type: cell-based
Method: Cells were stained with propidium iodide and analyzed with FACScan. Both 5b at 3 μM and stilbene 4a at 30 nM induce a subG0/1 population that represents the dead population. At higher concentrations of either compound, nearly all cells are dead.
(a) In vitro sensitivity of UCI101 cells toward three potential stilbene prodrugs, 5a-c, was tested in 96-well plates using Alamar Blue™ assays to determine cell growth inhibition. […] (b) 5b induces cell cycle change and apoptosis in UCI101 cells. […] A subG0/1 population, representing apoptotic cells, appeared along with a decrease of the G1/G2 ratio after cells were treated with 3 μM 5b. […] (c) Cells treated with stilbene 4a and 5b were stained with phospho-histone 3B, a mitotic marker. The positive signals of phospho-histone 3B were shown in green and nuclei were stained with DAPI in blue. […] (d) In vivo efficacy of 5b compared with stilbene 4a. Nude mice were injected with UCI101 ovarian cancer cells and treated with 7 doses of 5b,c or stilbene 4a every 2-3 days. Tumor volume was calculated and plotted against days.

[10] = tested on: MDA-MB231 cells; experiment: immunofluorescent staining of tubulin, MDA-MB231; type: cell-based; settings: CA4 10 nM, stilbene 4a 100 nM, vincristine 100 nM, 5b 3 μM; 16 hours
Source text: Nuclei were stained with 4′,6-diamidino-2-phenylindole (DAPI). Control cells show the reticular pattern of the microtubule network.

[11] = tested on: UCI101 cells; experiment: immunofluorescent staining of tubulin, UCI101; type: cell-based; settings: CA4 10 nM, stilbene 4a 100 nM, 5b 3 μM; 16 hours
Source text: Nuclei were stained with DAPI.

[12] = tested on: UCI101 ovarian cancer cells (xenograft); experiment: UCI101 xenograft in nude mice; type: in vivo
Method: (§3) (a) In vitro sensitivity of UCI101 cells toward three potential stilbene prodrugs, 5a-c, was tested in 96-well plates using Alamar Blue™ assays to determine cell growth inhibition. […] (b) 5b induces cell cycle change and apoptosis in UCI101 cells. Cells were incubated with 5b at 1, 3, 10 μM for 16 hours followed by PI staining and flow cytometry analysis. A subG0/1 population, representing apoptotic cells, appeared along with a decrease of the G1/G2 ratio after cells were treated with 3 μM 5b. Higher concentration (10 μM) of 5b completely killed cells, as was the case with stilbene 4a at […]. (c) Cells treated with stilbene 4a and 5b were stained with phospho-histone 3B, a mitotic marker. The positive signals of phospho-histone 3B were shown in green and nuclei were stained with DAPI in blue. […] (d) In vivo efficacy of 5b compared with stilbene 4a. Nude mice were injected with UCI101 ovarian cancer cells and treated with 7 doses of 5b,c or stilbene 4a every 2-3 days. Tumor volume was calculated and plotted against days.
We next tested whether 5b could be converted into stilbene 4a in circulation. […] Blood was collected at 20, 60 and 240 min after injection for spot check of stilbene 4a level in serum. […] The in vivo efficacy of 5b and 5c was compared to stilbene 4a in a pilot study using 5 mice in each group.

[13] = preliminary toxicity and serum conversion of 5b; type: in vivo, mice
Source text: We next tested whether 5b could be converted into stilbene 4a in circulation. […] The in vivo efficacy of 5b and 5c was compared to stilbene 4a in a pilot study using 5 mice in each group.

[14] = tested on: UCI101 cells; experiment: phospho-histone 3B mitotic marker staining; type: cell-based
Method: as §3
The in vitro efficacy of these three compounds was tested in UCI101 cells in 96-well plate format and stained with Alamar blue™, The growth suppression was calculated as was done similarly to other test compounds. […] A dose response was then performed with various concentrations of 5b in vitro. […]

SMILES: COc1cc(/C=C\c2ccc3c(ccn3C)c2)cc(OC)c1 [13a, (Z)-5-[2-(3,5-Dimethoxy-phenyl)-vinyl]-1-methyl-1H-indole]
- water solubility (in words) [1]: poor water solubility
- IC50 ([2]; Homo sapiens, SNU-423, 48 h, read-out: IC50 (50% growth inhibition), SNU423, 48 hours): 10 nM
- effective concentration, blocking cell proliferation ([2]; SNU423, 48 hours): 0.03 µM
- IC50 [3]: 10 nM
- IC50 [4]: 10 nM
- relative potency / activity ([5]; UCI101, 48 hours): about equal in their potency
- IC50 ([6]; Homo sapiens, SK-OV-3, SKOV, read-out: IC50): 50 to 100 nM
- effective / active concentration ([6]; SKOV3, 48 hours): 0.1 µM
- phosphorylation of Stat3 ([7]; 0.1 μM): more pronounced
- phosphorylation of Chk1 ([7]; 36 hours): do not cause more phosphorylation of Chk1
- neurotoxicity [8]: transient neurotoxicity was observed

SMILES: COc1cc(/C=C\c2ccc(OC)c(NC(=O)OCCN3CCOCC3)c2)cc(OC)c1 [5b, (Z)-{5-[2-(3,5-Dimethoxy-phenyl)-vinyl]-2-methoxy-phenyl}-carbamic acid 2-morpholin-4-yl-ethyl ester, oxalate salt]
- water solubility (in words) [1]: high solubility
- solubility ([1]; HCl salt, read-out: water solubility, x HCl): 759000 µg/mL
- solubility ([1]; free base, read-out: water solubility, Free base): < 1000 µg/mL
- solubility ([1]; oxalate salt, read-out: water solubility, x (COOH)2): 5900 µg/mL
- fold less potent than stilbene 4a ([5]; UCI101, from IC50): about 100
- IC50 ([5]; UCI101, estimated): ~3000 nM
- cell death / cell cycle arrest at 1 μM ([9]; 1 μM): not effective in inducing cell death or cell cycle arrest
- cell death / cell cycle arrest at 3 μM ([9]; 3 μM): showed a significant activity
- cell death / cell cycle arrest at 10 μM ([9]; 10 μM): nearly all cells have committed to cell death
- fold less potent than stilbene 4a in vitro ([9]; 10 μM 5b equivalent to 100 nM stilbene 4a): 100
- cell cycle effect ([9]; 4a at 30, 100 nM, 5b at 1, 3, 10 μM): induced similar cell cycle arrest as stilbene 4a
- concentration inducing a subG0/1 (dead) population ([9]; 24 hours): 3 µM
- microtubule pattern [10]: completely disrupted microtubule formation
- microtubule pattern [11]: partial disruption of microtubules
- tumor growth versus control mice ([12]; 7 doses every 2-3 days): only compound that achieved statistical significance compared with control mice
- tumor growth suppression ([12]; 7 doses every 2-3 days, 5 mice in each group): about 40%
- mouse weight ([12]; mouse, in vivo): did not show any significant change
- tolerability ([13]; 100 mg/kg by intraperitoneal injection): tolerated well without complication
- persistence in circulation ([13]; 100 mg/kg ip): stay in circulation longer than stilbene 4a
- phospho-histone 3B positive cells [14]: dramatic increase in positive cells

— patent publication US7781580B2, “Stilbene derivatives as new cancer therapeutic agents” (Virginia Commonwealth University, priority 2007, dated 2010)
